From publication PMC12281424, “A Rac-specific competitive inhibitor of guanine nucleotide binding reduces metastasis in triple-negative breast cancer” (Cell Reports Medicine, 2025)
Several values for one entry are separate records, joined by “and”; a condition that tells them apart may be missing. Equal values may be shown once.

Assays:
[1] = target: AMPKα1(h) (Homo sapiens, UniProt Q13131); assay: Kinase Profiler; format: biochemical
Method: (§3) Blood cell counts, kinase profiler, safety screen, bacterial cytotoxicity, Ames, micronucleus assays were performed by the company Eurofins (France). The kinase profiler was performed by the company Eurofins (Discovery, Panlab and Cerep).

[2] = test system: Phosphodiesterase PDE3; assay: Safety screen; format: biochemical, human
Method: Blood cell counts, kinase profiler, safety screen, bacterial cytotoxicity, Ames, micronucleus assays were performed by the company Eurofins (France).

[3] = target: c-RAF(h) (Homo sapiens, UniProt P04049); assay: Kinase Profiler; format: biochemical
c-RAF(h), sequence (P04049 whole entry): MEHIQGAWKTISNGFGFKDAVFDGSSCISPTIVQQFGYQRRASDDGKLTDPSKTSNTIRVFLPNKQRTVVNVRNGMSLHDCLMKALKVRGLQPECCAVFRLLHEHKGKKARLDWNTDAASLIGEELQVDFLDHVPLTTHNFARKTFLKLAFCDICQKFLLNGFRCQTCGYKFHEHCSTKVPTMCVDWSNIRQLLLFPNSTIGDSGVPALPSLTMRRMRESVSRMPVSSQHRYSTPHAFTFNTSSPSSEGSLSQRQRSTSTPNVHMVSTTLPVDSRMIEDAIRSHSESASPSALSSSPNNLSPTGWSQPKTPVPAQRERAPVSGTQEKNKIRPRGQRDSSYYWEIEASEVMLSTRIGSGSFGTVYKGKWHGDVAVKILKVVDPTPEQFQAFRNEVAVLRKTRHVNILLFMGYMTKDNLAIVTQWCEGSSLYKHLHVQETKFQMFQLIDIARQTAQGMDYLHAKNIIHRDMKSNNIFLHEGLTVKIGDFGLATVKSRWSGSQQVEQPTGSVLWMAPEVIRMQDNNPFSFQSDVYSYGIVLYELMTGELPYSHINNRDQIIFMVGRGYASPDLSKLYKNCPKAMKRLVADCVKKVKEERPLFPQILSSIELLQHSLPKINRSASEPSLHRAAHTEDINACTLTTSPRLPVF
Method: (§4) The kinase profiler was performed by the company Eurofins (Discovery, Panlab and Cerep).

[4] = target: BTK(h) (Homo sapiens, UniProt Q06187); assay: Kinase Profiler; format: biochemical
Method: as §3

[5] = target: Aurora-C(h) (Homo sapiens, UniProt Q9UQB9); assay: Kinase Profiler; format: biochemical
Aurora-C(h), sequence (Q9UQB9 whole entry): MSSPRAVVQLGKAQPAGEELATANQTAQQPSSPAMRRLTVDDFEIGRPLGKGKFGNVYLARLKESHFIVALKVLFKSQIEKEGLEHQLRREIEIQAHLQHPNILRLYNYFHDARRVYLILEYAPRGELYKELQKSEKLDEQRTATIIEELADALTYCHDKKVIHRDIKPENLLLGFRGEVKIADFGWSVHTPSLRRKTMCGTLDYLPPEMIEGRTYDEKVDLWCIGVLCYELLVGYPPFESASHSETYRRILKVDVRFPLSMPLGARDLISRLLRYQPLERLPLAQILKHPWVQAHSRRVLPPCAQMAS
Method: as §3

[6] = target: EphA7(h) (Homo sapiens, UniProt Q15375); assay: Kinase Profiler; format: biochemical
Method: as §3

[7] = target: PKA(h) (Homo sapiens, UniProt P17612); assay: Kinase Profiler; format: biochemical
Method: as §3

[8] = target: TGFBR2(h) (Homo sapiens, UniProt P37173); assay: Kinase Profiler; format: biochemical
TGFBR2(h), sequence (P37173 23-567): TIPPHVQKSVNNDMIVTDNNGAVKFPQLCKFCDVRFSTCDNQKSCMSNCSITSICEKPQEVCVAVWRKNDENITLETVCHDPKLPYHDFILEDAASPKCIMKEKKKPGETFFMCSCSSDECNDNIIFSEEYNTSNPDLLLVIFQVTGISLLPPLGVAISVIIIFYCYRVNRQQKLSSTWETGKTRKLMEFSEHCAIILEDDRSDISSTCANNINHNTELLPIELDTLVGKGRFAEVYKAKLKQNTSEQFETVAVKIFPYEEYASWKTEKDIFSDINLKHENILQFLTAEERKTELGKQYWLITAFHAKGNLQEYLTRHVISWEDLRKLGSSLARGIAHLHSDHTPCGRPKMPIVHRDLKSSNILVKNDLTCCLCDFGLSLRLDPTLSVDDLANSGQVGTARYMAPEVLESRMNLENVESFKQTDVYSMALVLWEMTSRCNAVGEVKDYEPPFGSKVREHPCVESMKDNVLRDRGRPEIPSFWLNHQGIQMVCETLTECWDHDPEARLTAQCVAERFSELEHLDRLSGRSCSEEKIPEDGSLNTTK
Method: as §3

[9] = target: CDKL2(h) (Homo sapiens, UniProt Q92772); assay: Kinase Profiler; format: biochemical
Method: as §4

[10] = target: NEK11(h) (Homo sapiens, UniProt Q8NG66); assay: Kinase Profiler; format: biochemical
Method: as §4

[11] = target: CaMKK2(h) (Homo sapiens, UniProt Q96RR4); assay: Kinase Profiler; format: biochemical
Method: as §4

[12] = target: Cyclooxygenase COX-2 (Homo sapiens, UniProt P35354); assay: Safety screen; format: biochemical
Method: as §3

[13] = target: Aurora-A(h) (Homo sapiens, UniProt O14965); assay: Kinase Profiler; format: biochemical
Method: as §3

[14] = target: cKit(V654A)(h) (Homo sapiens, UniProt P10721, V654A); assay: Kinase Profiler; format: biochemical
cKit(V654A)(h), sequence (P10721 26-976 V654A): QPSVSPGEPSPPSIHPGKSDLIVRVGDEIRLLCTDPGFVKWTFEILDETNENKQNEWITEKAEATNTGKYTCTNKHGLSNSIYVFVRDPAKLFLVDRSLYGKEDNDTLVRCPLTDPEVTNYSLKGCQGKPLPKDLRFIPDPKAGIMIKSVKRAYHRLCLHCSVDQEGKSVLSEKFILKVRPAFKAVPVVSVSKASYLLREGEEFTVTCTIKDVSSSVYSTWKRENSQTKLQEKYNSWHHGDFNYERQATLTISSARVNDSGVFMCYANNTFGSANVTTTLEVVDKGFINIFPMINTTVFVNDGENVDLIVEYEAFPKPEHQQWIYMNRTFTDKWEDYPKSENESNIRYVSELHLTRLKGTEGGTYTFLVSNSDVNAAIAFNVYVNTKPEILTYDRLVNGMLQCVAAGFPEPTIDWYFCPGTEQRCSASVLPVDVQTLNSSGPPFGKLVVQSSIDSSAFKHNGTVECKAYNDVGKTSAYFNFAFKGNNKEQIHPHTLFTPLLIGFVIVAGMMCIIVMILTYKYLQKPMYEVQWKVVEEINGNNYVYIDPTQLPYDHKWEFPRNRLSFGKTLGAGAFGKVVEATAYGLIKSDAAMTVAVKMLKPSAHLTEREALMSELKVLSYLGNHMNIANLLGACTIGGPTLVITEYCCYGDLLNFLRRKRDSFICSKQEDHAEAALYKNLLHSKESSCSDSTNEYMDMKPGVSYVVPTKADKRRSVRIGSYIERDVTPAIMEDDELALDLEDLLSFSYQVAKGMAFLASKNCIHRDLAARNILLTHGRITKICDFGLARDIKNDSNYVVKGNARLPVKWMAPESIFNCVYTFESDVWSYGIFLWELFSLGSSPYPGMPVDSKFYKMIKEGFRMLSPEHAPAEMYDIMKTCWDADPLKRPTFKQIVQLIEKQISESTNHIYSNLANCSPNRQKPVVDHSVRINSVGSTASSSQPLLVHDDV
Method: as §3

[15] = target: CK1γ3(h) (Homo sapiens, UniProt Q9Y6M4); assay: Kinase Profiler; format: biochemical
CK1γ3(h), sequence (Q9Y6M4 whole entry): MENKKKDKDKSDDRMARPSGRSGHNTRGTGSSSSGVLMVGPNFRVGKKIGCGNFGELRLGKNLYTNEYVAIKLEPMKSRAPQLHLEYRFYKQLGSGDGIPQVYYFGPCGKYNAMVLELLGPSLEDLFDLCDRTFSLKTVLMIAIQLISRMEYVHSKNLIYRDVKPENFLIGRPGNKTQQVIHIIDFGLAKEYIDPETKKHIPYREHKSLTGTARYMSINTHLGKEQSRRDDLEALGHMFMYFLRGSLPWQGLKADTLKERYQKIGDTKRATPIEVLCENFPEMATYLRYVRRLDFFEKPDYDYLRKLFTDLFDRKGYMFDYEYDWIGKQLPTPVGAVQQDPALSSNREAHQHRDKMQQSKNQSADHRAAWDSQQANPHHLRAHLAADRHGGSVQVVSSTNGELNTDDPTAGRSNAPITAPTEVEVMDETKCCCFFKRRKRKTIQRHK
Method: as §3

[16] = target: STK39(h) (Homo sapiens, UniProt Q9UEW8); assay: Kinase Profiler; format: biochemical
Method: as §4

[17] = target: IRE1(h) (Homo sapiens, UniProt O75460); assay: Kinase Profiler; format: biochemical
Method: as §3

[18] = target: ROCK-II(r) (Rattus norvegicus, UniProt Q62868); assay: Kinase Profiler; format: biochemical
ROCK-II(r), sequence (Q62868 2-543 limits assumed): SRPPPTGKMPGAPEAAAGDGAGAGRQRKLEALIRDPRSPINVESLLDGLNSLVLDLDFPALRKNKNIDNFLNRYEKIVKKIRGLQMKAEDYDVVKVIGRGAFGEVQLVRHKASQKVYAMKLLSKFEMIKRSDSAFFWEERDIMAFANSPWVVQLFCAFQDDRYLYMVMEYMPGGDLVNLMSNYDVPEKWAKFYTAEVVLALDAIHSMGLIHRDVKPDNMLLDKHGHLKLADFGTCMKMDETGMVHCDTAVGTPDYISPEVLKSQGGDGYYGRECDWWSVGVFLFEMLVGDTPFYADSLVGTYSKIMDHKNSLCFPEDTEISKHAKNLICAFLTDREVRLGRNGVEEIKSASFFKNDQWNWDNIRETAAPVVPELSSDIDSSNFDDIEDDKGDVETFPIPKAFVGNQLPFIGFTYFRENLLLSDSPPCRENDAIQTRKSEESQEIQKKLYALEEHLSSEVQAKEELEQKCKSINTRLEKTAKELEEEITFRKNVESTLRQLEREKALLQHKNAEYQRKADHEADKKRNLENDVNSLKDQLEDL
Method: as §3

[19] = target: NEK1(h) (Homo sapiens, UniProt Q96PY6); assay: Kinase Profiler; format: biochemical
Method: as §4

[20] = In vivo toxicity, chronic daily intraperitoneal injection; design: species or system mouse; conditions: 1, 10 and 25 mg/kg daily i.p. for 1 month
Method: In order to assess the anti-tumor properties of A41 in vivo, we first would like to make sure of the safety and the absence of major off-target effects of A41. […] In vivo safety has been addressed by monitoring various biological parameters in mice chronically receiving daily intraperitoneal A41 injection (1, 10, and 25 mg/kg) for 1 month. […] We then analyzed pharmacokinetics and tissue distribution of A41 following intraperitoneal injection of A41 (25 mg/kg). A41 rapidly reached its peak plasma concentration (∼15 min, 15.056 ± 0.5 μg/mL), which then declined over 2–3 h (Figure S7). A41 was detected in the liver, heart, and lungs.
Supplementary Fig. 6: In vivo A41 toxicity. (a) Effect of chronic administration of A41 at the indicated concentrations by daily intraperitoneal injections in mice on weight gain glycemia. (b) and (c), Glycemia (b) and plasmatic concentration of transaminases (ALAT and ASAT), albumin, urea, creatinine and total protein in mice after of 1 month of chronic administration of A41 at indicated concentrations (c). N=6-7

[21] = target: ErbB4(h) (Homo sapiens, UniProt Q15303); assay: Kinase Profiler; format: biochemical
Method: as §4

[22] = target: PKCμ(h) (Homo sapiens, UniProt Q15139); assay: Kinase Profiler; format: biochemical
Method: as §4

[23] = target: TSSK3(h) (Homo sapiens, UniProt Q96PN8); assay: Kinase Profiler; format: biochemical
TSSK3(h), sequence (Q96PN8 whole entry): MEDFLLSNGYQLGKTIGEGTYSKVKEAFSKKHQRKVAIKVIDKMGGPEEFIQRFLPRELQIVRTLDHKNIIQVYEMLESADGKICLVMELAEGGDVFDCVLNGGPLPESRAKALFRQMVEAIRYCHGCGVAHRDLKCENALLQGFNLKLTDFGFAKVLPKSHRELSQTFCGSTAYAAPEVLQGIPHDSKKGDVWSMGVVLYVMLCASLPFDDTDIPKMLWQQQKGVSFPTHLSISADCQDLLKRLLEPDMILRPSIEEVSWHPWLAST
Method: as §4

[24] = target: Plk4(h) (Homo sapiens, UniProt O00444); assay: Kinase Profiler; format: biochemical
Method: as §3

[25] = target: IR(h) (Homo sapiens, UniProt P06213); assay: Kinase Profiler; format: biochemical
Method: as §3

[26] = target: HPK1(h) (Homo sapiens, UniProt Q92918); assay: Kinase Profiler; format: biochemical
Method: as §4

[27] = test system: TA100; assay: Bacterial cytotoxicity; format: cell-based
Text: (§1) Data S2. Bacterial cytotoxicity of A41.
(§2) Test Concentration %Effect Cytotoxicity (% of control) […]

[28] = test system: TA1535; assay: Bacterial cytotoxicity; format: cell-based
Text: as §1, §2

[29] = target: PI3K (p110b/p85a)(h) (Homo sapiens, UniProt P42338); assay: Kinase Profiler; format: biochemical
Method: as §3

AMPKα1(h), sequence (Q13131 whole entry): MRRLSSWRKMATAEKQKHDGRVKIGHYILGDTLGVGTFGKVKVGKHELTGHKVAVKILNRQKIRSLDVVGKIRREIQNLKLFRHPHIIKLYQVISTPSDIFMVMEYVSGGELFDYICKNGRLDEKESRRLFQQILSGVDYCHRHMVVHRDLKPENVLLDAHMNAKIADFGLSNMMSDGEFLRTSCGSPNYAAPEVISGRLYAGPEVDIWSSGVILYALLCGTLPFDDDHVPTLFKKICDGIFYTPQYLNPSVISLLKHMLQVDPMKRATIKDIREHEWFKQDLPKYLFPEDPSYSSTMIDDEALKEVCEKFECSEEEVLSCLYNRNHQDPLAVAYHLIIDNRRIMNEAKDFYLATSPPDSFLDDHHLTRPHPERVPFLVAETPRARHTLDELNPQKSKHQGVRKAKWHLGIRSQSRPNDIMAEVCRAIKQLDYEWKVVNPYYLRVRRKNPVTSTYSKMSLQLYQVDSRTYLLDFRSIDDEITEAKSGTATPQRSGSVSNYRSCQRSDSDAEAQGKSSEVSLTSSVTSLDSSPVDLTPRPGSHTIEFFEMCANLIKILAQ
AMPKα1(h), sequence (Q9Y478 whole entry partner): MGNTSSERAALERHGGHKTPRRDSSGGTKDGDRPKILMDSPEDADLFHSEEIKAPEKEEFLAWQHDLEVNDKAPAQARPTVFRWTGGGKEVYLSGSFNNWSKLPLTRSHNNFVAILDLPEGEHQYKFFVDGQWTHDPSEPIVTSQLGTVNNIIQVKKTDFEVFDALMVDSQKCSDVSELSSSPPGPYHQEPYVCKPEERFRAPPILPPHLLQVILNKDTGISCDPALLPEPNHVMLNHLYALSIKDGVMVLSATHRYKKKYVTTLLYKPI
AMPKα1(h), sequence (P54619 whole entry partner): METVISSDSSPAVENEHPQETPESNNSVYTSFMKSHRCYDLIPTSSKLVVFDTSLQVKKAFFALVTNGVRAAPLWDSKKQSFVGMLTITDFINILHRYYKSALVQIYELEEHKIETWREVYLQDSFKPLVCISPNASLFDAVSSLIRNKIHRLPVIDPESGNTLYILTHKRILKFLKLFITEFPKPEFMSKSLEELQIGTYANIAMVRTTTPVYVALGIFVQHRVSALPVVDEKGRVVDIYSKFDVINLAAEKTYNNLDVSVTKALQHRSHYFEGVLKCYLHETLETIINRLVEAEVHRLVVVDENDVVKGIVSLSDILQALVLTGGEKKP

COc1ccc(OC)c(NS(=O)(=O)c2ccc(NC(=O)CCSc3ccc(C)cc3)cc2)c1 [Compound A41]
Activity(%) [1]: 102% | % inh. [2]: 9% | Activity(%) [3]: 93% | Activity(%) [4]: 117% | Activity(%) [5]: 100% | Activity(%) [6]: 108% | Activity(%) [7]: 84% | Activity(%) [8]: 99% | Activity(%) [9]: 103% | Activity(%) [10]: 99% | Activity(%) [11]: 110% | % inh. [12]: 11% | Activity(%) [13]: 124% | Activity(%) [14]: 99% | Activity(%) [15]: 101% | Activity(%) [16]: 91% | Activity(%) [17]: 101% | Activity(%) [18]: 110% | Activity(%) [19]: 104% | biological parameters incl. weight [20]: None of the parameters measured, including the weight of the mice, was affected | deaths [20]: No deaths | visual inspection (suffering, behavior) [20]: no sign of suffering or abnormal behavior | Activity(%) [21]: 108% | Activity(%) [22]: 104% | Activity(%) [23]: 104% | Activity(%) [24]: 104% | Activity(%) [25]: 137% | Activity(%) [26]: 98% | %Effect, single replicates (1st, 2nd, 3rd) ([27]; - S9, 1.0E-04 M): 222.5% and 205.5% and 199.0% | Cytotoxicity (% of control), Mean %Effect ([27]; - S9, 1.0E-04 M): 209.0% | %Effect, single replicates (1st, 2nd, 3rd) ([27]; - S9, 1.0E-05 M): 116.5% and 108.6% and 92.9% | Cytotoxicity (% of control), Mean %Effect ([27]; - S9, 1.0E-05 M): 106.0% | %Effect, single replicates (1st, 2nd, 3rd) ([27]; - S9, 1.2E-06 M): 103.4% and 99.5% and 92.9% | Cytotoxicity (% of control), Mean %Effect ([27]; - S9, 1.2E-06 M): 98.6% | %Effect, single replicates (1st, 2nd, 3rd) ([27]; - S9, 2.5E-05 M): 113.9% and 111.3% and 100.8% | Cytotoxicity (% of control), Mean %Effect ([27]; - S9, 2.5E-05 M): 108.6% | %Effect, single replicates (1st, 2nd, 3rd) ([27]; - S9, 2.5E-06 M): 106.0% and 103.4% and 92.9% | Cytotoxicity (% of control), Mean %Effect ([27]; - S9, 2.5E-06 M): 100.8% | %Effect, single replicates (1st, 2nd, 3rd) ([27]; - S9, 5.0E-05 M): 112.6% and 53.1% and 102.1% | %Effect, single replicates (1st, 2nd, 3rd) ([27]; - S9, 5.0E-06 M): 116.5% (2×) and 91.6% | Cytotoxicity (% of control), Mean %Effect ([27]; - S9, 5.0E-06 M): 108.2% | %Effect, single replicates (1st, 2nd, 3rd) ([27]; - S9, 6.0E-07 M): 104.7% (2×) and 98.2% | Cytotoxicity (% of control), Mean %Effect ([27]; - S9, 6.0E-07 M): 102.5% | %Effect, single replicates (1st, 2nd, 3rd) ([28]; - S9, 1.0E-04 M): 219.4% and 233.3% and 215.9% | Cytotoxicity (% of control), Mean %Effect ([28]; - S9, 1.0E-04 M): 222.9% | %Effect, single replicates (1st, 2nd, 3rd) ([28]; - S9, 1.0E-05 M): 96.4% and 98.7% and 108.0% | Cytotoxicity (% of control), Mean %Effect ([28]; - S9, 1.0E-05 M): 101.0% | %Effect, single replicates (1st, 2nd, 3rd) ([28]; - S9, 1.2E-06 M): 91.7% and 97.5% and 88.2% | Cytotoxicity (% of control), Mean %Effect ([28]; - S9, 1.2E-06 M): 92.5% | %Effect, single replicates (1st, 2nd, 3rd) ([28]; - S9, 2.5E-05 M): 116.1% and 99.8% and 98.7% | Cytotoxicity (% of control), Mean %Effect ([28]; - S9, 2.5E-05 M): 104.9% | %Effect, single replicates (1st, 2nd, 3rd) ([28]; - S9, 2.5E-06 M): 92.9% and 91.7% and 97.5% | Cytotoxicity (% of control), Mean %Effect ([28]; - S9, 2.5E-06 M): 94.0% | %Effect, single replicates (1st, 2nd, 3rd) ([28]; - S9, 5.0E-05 M): 168.3% and 163.7% and 175.3% | Cytotoxicity (% of control), Mean %Effect ([28]; - S9, 5.0E-05 M): 169.1% | %Effect, single replicates (1st, 2nd, 3rd) ([28]; - S9, 5.0E-06 M): 96.4% and 95.2% and 99.8% | Cytotoxicity (% of control), Mean %Effect ([28]; - S9, 5.0E-06 M): 97.1% | %Effect, single replicates (1st, 2nd, 3rd) ([28]; - S9, 6.0E-07 M): 89.4% and 96.4% and 94.0% | Cytotoxicity (% of control), Mean %Effect ([28]; - S9, 6.0E-07 M): 93.3% | Activity(%) [29]: 101%
